≈ marks a conversion by molar mass, not a printed value. Calls of active or inactive are those of the source. The rule behind the calls is not given here.
Columns and labels:
[1] = test system: Clostridioides difficile; assay: Antibacterial activity against Clostridium difficile CD196 assessed as growth inhibition after 20 to 24 hrs; format: functional
[2] = test system: Staphylococcus aureus; assay: Antibacterial activity against Staphylococcus aureus 8325-4 assessed as growth inhibition after 20 to 24 hrs; format: functional
[3] = test system: Bifidobacterium longum; assay: Antibacterial activity against Bifidobacterium longum ATCC BAA-999 assessed as growth inhibition after 20 to 24 hrs; format: functional
[4] = test system: Clostridium perfringens; assay: Antibacterial activity against Clostridium perfringens ATCC 13124 assessed as growth inhibition after 20 to 24 hrs; format: functional
[5] = test system: Escherichia coli; assay: Antibacterial activity against Escherichia coli ATCC 700927 assessed as growth inhibition after 20 to 24 hrs; format: functional
[6] = test system: Lacticaseibacillus casei; assay: Antibacterial activity against Lactobacillus casei ATCC 334 assessed as growth inhibition after 20 to 24 hrs; format: functional
[7] = test system: Bacteroides fragilis; assay: Antibacterial activity against Bacteroides fragilis ATCC 25285 assessed as growth inhibition after 20 to 24 hrs; format: functional; conditions: NCTC 9343
[8] = test system: Enterococcus faecalis; assay: Antibacterial activity against Enterococcus faecalis ATCC 47077 assessed as growth inhibition after 20 to 24 hrs; format: functional
[9] = test system: Streptococcus mutans; assay: Antibacterial activity against Streptococcus mutans ATCC 700610 assessed as growth inhibition after 20 to 24 hrs; format: functional
[10] = test system: Bacteroides thetaiotaomicron; assay: Antibacterial activity against Bacteroides thetaiotaomicron ATCC 29148 assessed as growth inhibition after 20 to 24 hrs; format: functional
[11] = test system: Limosilactobacillus reuteri; assay: Antibacterial activity against Lactobacillus reuteri ATCC 23272 assessed as growth inhibition after 20 to 24 hrs; format: functional
[12] = test system: Clostridioides difficile; assay: Antibacterial activity against Clostridium difficile 10463 clinical isolate assessed as growth inhibition after 20 to 24 hrs; format: functional
[13] = test system: FaDu; assay: Cytotoxicity against human FADU cells assessed as concentration required to decrease cell viability incubated for 24 hrs followed by compound washout measured after 18 hrs by resazurin dye-based assay
[14] = test system: Clostridioides difficile; assay: Antibacterial activity against Clostridium difficile VPI clinical isolate assessed as growth inhibition after 20 to 24 hrs; format: functional
[15] = test system: Clostridioides difficile; assay: Antibacterial activity against Clostridium difficile UK1 clinical isolate assessed as growth inhibition after 20 to 24 hrs; format: functional
[16] = Antibacterial activity against Clostridium difficile 630 clinical isolate assessed as growth inhibition after 20 to 24 hrs; format: functional, Clostridioides difficile 630; conditions: Clostridioides difficile
[17] = test system: Clostridioides difficile; assay: Antibacterial activity against Clostridium difficile GC1 clinical isolate assessed as growth inhibition after 20 to 24 hrs; format: functional
[18] = test system: Clostridioides difficile; assay: Antibacterial activity against stationary phase of Clostridium difficile CD196 assessed as cell killing at 1 to 20 X MIC after 3 to 6 hrs; format: functional
[19] = test system: Clostridioides difficile; assay: Antibacterial activity against Clostridium difficile UK6 clinical isolate assessed as growth inhibition after 20 to 24 hrs; format: functional
[20] = Cytotoxicity against human HepG2 cells assessed as concentration required to decrease cell viability incubated for 24 hrs followed by compound washout measured after 18 hrs by resazurin dye-based assay; conditions: read-out: Activity

SMILES	MIC [1] [µg/mL]	MIC [2] [µg/mL]	MIC [3] [µg/mL]	MIC [4] [µg/mL]	MIC [5] [µg/mL]	MIC [6] [µg/mL]	MIC [7] [µg/mL]	MIC [8] [µg/mL]	MIC [9] [µg/mL]	MIC [10] [µg/mL]	MIC [11] [µg/mL]	other results
O=C(N/N=C/c1c(O)ccc2ccccc12)c1cccc(Br)c1	6.25 (≈ 16.9 µM)	–	–	–	–	–	–	–	–	–	–	–
O=C(N/N=C/c1c(O)ccc2ccccc12)c1cccc([N+](=O)[O-])c1	> 50	–	–	–	–	–	–	–	–	–	–	–
COc1cccc(/C=N/NC(=O)c2cc(C)n[nH]2)c1O	> 50	> 50	> 50	> 50	> 50	> 50	> 50	> 50	> 50	> 50	> 50	–
CN[C@H](CC(C)C)C(=O)N[C@H]1C(=O)N[C@@H](CC(N)=O)C(=O)N[C@H]2C(=O)N[C@H]3C(=O)N[C@H](C(=O)N[C@H](C(=O)O)c4cc(O)cc(O)c4-c4cc3ccc4O)[C@H](O)c3ccc(c(Cl)c3)Oc3cc2cc(c3O[C@@H]2O[C@H](CO)[C@@H](O)[C@H](O)[C@H]2O[C@H]2C[C@](C)(N)[C@H](O)[C@H](C)O2)Oc2ccc(cc2Cl)[C@H]1O [VANCOMYCIN]	1 (≈ 0.69 µM)	3.13 (≈ 2.16 µM)	≤ 0.78	≤ 0.78	> 50	> 50	12.5 (≈ 8.63 µM)	3.13 (≈ 2.16 µM)	1.56 (≈ 1.08 µM)	12.5 (≈ 8.63 µM)	> 50	MIC [12]: 1.5 µg/mL (≈ 1.04 µM); Activity [13]: > 200 µg/mL; MIC [14]: 1.5 µg/mL (≈ 1.04 µM); MIC [15]: 1.5 µg/mL (≈ 1.04 µM); MIC [16]: 0.75 µg/mL (≈ 0.518 µM); MIC [17]: 1.5 µg/mL (≈ 1.04 µM); Activity [18]: inactive; MIC [19]: 0.75 µg/mL (≈ 0.518 µM); MCC at 24 h [20]: > 200 µg/mL
N#CC(C#N)=NNc1cccc(Cl)c1 [CARBONYL CYANIDE M-CHLOROPHENYLHYDRAZONE]	1.56 (≈ 7.62 µM)	> 50	3.25 (≈ 15.9 µM)	> 50	> 50	> 50	> 50	> 50	> 50	> 50	> 50	Activity [13]: 50 µg/mL; Activity [18]: Active; MCC at 24 h [20]: 50 µg/mL
Oc1ccc2ccccc2c1/C=N/Nc1ccccc1	> 50	–	–	–	–	–	–	–	–	–	–	–
Clc1ccc(COC(Cn2ccnc2)c2ccc(Cl)cc2Cl)c(Cl)c1 (stereo unspecified) [MICONAZOLE]	–	–	–	–	–	–	–	–	–	–	–	Activity [13]: 50 µg/mL; MCC at 24 h [20]: 50 µg/mL
Oc1c(Cl)c(Cl)c(Cl)c(Cl)c1Cl [PENTACHLOROPHENOL]	50 (≈ 188 µM)	< 0.78	12.5 (≈ 46.9 µM)	6.25 (≈ 23.5 µM)	> 50	50 (≈ 188 µM)	6.25 (≈ 23.5 µM)	> 50	25 (≈ 93.9 µM)	6.25 (≈ 23.5 µM)	50 (≈ 188 µM)	–
O=C(N/N=C/c1c(O)ccc2ccccc12)c1ccccc1	6.25 (≈ 21.5 µM)	–	–	–	–	–	–	–	–	–	–	–
O=C(N/N=C/c1c(O)ccc2ccccc12)c1ccc([N+](=O)[O-])cc1	> 50	–	–	–	–	–	–	–	–	–	–	–
Cc1cc(C(=O)N/N=C/c2ccc([N+](=O)[O-])o2)[nH]n1	0.78 (≈ 2.96 µM)	1.56 (≈ 5.93 µM)	≤ 0.78	≤ 12.5	12.5 (≈ 47.5 µM)	6.25 (≈ 23.7 µM)	≤ 3.13	12.5 (≈ 47.5 µM)	1.56 (≈ 5.93 µM)	≤ 3.13	12.5 (≈ 47.5 µM)	–
CC(=O)N/N=C/c1ccccc1	> 50	–	–	–	–	–	–	–	–	–	–	–
O=C(N/N=C/c1c(OCc2cccc(Br)c2)ccc2ccccc12)c1ccccc1	> 50	–	–	–	–	–	–	–	–	–	–	–
O=[N+]([O-])c1ccc(O)c([N+](=O)[O-])c1 [2,4-DINITROPHENOL]	50 (≈ 272 µM)	25 (≈ 136 µM)	25 (≈ 136 µM)	> 50	> 50	> 50	12.5 (≈ 67.9 µM)	> 50	> 50	25 (≈ 136 µM)	> 50	–
Cc1ccc(C(=O)N/N=C/c2ccc(O)c3ccccc23)cc1	> 50	> 50	> 50	> 50	> 50	> 50	> 50	> 50	> 50	> 50	> 50	–
O=C(N/N=C/c1c(O)ccc2ccccc12)c1cc([N+](=O)[O-])cc([N+](=O)[O-])c1	> 50	–	–	–	–	–	–	–	–	–	–	–
O=C(N/N=C/c1c(O)ccc2ccccc12)c1cc2ccccc2cc1O	12.5 (≈ 35.1 µM)	–	–	–	–	–	–	–	–	–	–	–
COc1cccc(/C=N/NC(=O)c2cc(C)nc3ccc(Br)cc23)c1	> 50	> 50	> 50	> 50	> 50	> 50	> 50	> 50	> 50	> 50	> 50	–
